Experimental data published in article PMC10384572, “Marine Meroterpenoids Isolated from Gongolaria abies-marina Induce Programmed Cell Death in Naegleria fowleri” (Pharmaceuticals, 2023).

How the values were obtained:
[1] = test system: N. fowleri ATCC® 30808 trophozoites; assay: ATP production (Celltiter-Glo Luminescent Cell Viability Assay); format: cell-based, Naegleria fowleri; settings: IC90 of compound, 24 h, 2 × 10^5 cells/mL
Method: The evaluation of the programmed cell death induction by the meroterpenoids was performed in the ATCC® 30808™ N. fowleri trophozoites. Cells were incubated over 24 h with the IC90 (Table 1) of the compounds at 37 °C. In these experiments, the presence of different metabolic events which are characteristics of the programmed cell death process were evaluated. For this, five different apoptosis events marker kits (the Hoechst 33342/Propidium Iodide, SYTOX™ Green kit, CellROX® Deep Reagent, JC-1 Mitochondrial Membrane Potential Detection Kit, and the Celltiter-Glo® Luminescent Cell Viability Assay) were used according to manufacturer’s instructions. Furthermore, the percentage of stained cells was determined after incubating the treated and non-treated cells with the stains. On the other hand, the measurement of the ATP production was also assessed in order to confirm the mitochondrial damage in the amoebae. For this, the Celltiter-Glo® Luminescent Cell Viability Assay (Promega Biotech Ibérica, Madrid, Spain) was used. The emitted luminescence, which is proportional to the ATP levels, was measured in an EnSpire® Multimode Plate Reader (Perkin Elmer, Madrid, Spain). Experiments were performed in triplicate. In both treated and untreated cells, the ATP production of a concentration of 2 × 10^5 cells/mL was measured.

[2] = test system: N. fowleri ATCC® 30808 trophozoites; assay: Plasma membrane permeability (SYTOX Green); format: cell-based, Naegleria fowleri; settings: IC90 of compound, 24 h
Method: The evaluation of the programmed cell death induction by the meroterpenoids was performed in the ATCC® 30808™ N. fowleri trophozoites. Cells were incubated over 24 h with the IC90 (Table 1) of the compounds at 37 °C. In these experiments, the presence of different metabolic events which are characteristics of the programmed cell death process were evaluated. For this, five different apoptosis events marker kits (the Hoechst 33342/Propidium Iodide, SYTOX™ Green kit, CellROX® Deep Reagent, JC-1 Mitochondrial Membrane Potential Detection Kit, and the Celltiter-Glo® Luminescent Cell Viability Assay) were used according to manufacturer’s instructions. Furthermore, the percentage of stained cells was determined after incubating the treated and non-treated cells with the stains.
The evaluation of the damage in the cell membrane permeability was conducted with the SYTOX Green assay (Life Technologies, Madrid, Spain). Amoebae were incubated with the molecules over 24 h at 37 °C. An EVOS™ M5000 Imaging System (Invitrogen by Thermo Fisher Scientific) was used to observe the trophozoites. Cells with compromised plasma membrane permeability show bright green fluorescence as the stain reaches the nucleus. However, no fluorescence is observed in negative control cells.
In the PCD assays, the number of stained and unstained cells was measured after the performance of the experiments. Regarding the JC-1 Mitochondrial Membrane Potential assays, the ratio between the emitted red fluorescence (at 595 nm) and green fluorescence (at 535 nm) was determined. For each kit, images (×40) with at least 80 cells were selected and analyzed. […] The graphs illustrate the mean value ± SD of three different tests. Finally, a one-way analysis of variance (ANOVA) was assessed to determine the statistical differences between the treated cells and the negative control amoebae, ** p < 0.01; *** p < 0.001; **** p < 0.0001 significant differences.

[3] = test system: N. fowleri ATCC® 30808 trophozoites; assay: Chromatin condensation detection (Hoechst 33342/propidium iodide); format: cell-based, Naegleria fowleri; settings: IC90 of compound, 24 h
Method: The evaluation of the programmed cell death induction by the meroterpenoids was performed in the ATCC® 30808™ N. fowleri trophozoites. Cells were incubated over 24 h with the IC90 (Table 1) of the compounds at 37 °C. In these experiments, the presence of different metabolic events which are characteristics of the programmed cell death process were evaluated. For this, five different apoptosis events marker kits (the Hoechst 33342/Propidium Iodide, SYTOX™ Green kit, CellROX® Deep Reagent, JC-1 Mitochondrial Membrane Potential Detection Kit, and the Celltiter-Glo® Luminescent Cell Viability Assay) were used according to manufacturer’s instructions. Furthermore, the percentage of stained cells was determined after incubating the treated and non-treated cells with the stains. For the chromatin condensation assay, the Hoechst 33342 and the PI (Life Technologies, Madrid, Spain) were used. The images were captured in the EVOS™ M5000 Imaging System (Invitrogen by Thermo Fisher Scientific). A concentration of 5 × 10^5 cell/mL was seeded and incubated with compounds over 24 h. Three different cell population can be distinguished with this kit. Firstly, healthy cells will barely show blue fluorescence whereas in the presence of condensed chromatin an intense blue fluorescence corresponding to the Hoechst 33342 stain will be observable. Finally, dead cells will show red fluorescence due to the linkage between the nucleus and the PI. In the PCD assays, the number of stained and unstained cells was measured after the performance of the experiments. Regarding the JC-1 Mitochondrial Membrane Potential assays, the ratio between the emitted red fluorescence (at 595 nm) and green fluorescence (at 535 nm) was determined. For each kit, images (×40) with at least 80 cells were selected and analyzed. […] The graphs illustrate the mean value ± SD of three different tests. Finally, a one-way analysis of variance (ANOVA) was assessed to determine the statistical differences between the treated cells and the negative control amoebae, ** p < 0.01; *** p < 0.001; **** p < 0.0001 significant differences.

[4] = test system: Murine macrophages J774A.1 (ATCC® TIB-67); assay: In vitro cytotoxicity against murine macrophages (alamarBlue); format: cell-based; settings: murine macrophages J774A.1, 24 h, mean ± SD
Method: Murine macrophages from the J774A.1 cell line (ATCC® TIB-67) were maintained in Dulbecco’s Modified Eagle’s medium (DMEM) in order to evaluate the toxicity of the compounds. In addition, 10% (v/v) FBS and 10 μg/mL gentamicin (Sigma-Aldrich, Madrid, Spain) were added to the growth medium. Cells were grown in a 5% CO2 atmosphere at 37 °C.
For the cytotoxicity assays, the same protocol as detailed in Section 4.4 above was used. Murine macrophages were incubated with serial dilutions of the evaluated compounds at 37 °C in a 5% CO2 atmosphere over 24 h. The obtained data were analyzed as described in the previous section in order to calculate the CC50.
The in vitro IC50, IC90, and CC50 of the compounds were determined by a non-linear regression with a 95% confidence limit. The SigmaPlot 12.0 software (Systat Sofware Inc., London, UK) was used to perform the data analysis using a paired two-tailed t-test. Values of p < 0.05 were considered significant. The data represent the mean value and the SD of the conducted three different experiments.

COc1c(C)cc(O)cc1C/C=C(\C)CC(=O)/C=C(\C)CCC[C@@H](C)C(=O)/C=C/C(C)(C)O [1′Methoxyamentadione (3), 1′-methoxyamentadione]
Decrease of ATP production compared to untreated cells [1]: 82.62% | Plasma membrane permeability damage (SYTOX green) [2]: plasma membrane permeability damage | Apoptotic phase suggested by Hoechst/PI staining [3]: early apoptotic phase | Chromatin condensation (Hoechst 33342 stain) [3]: induced DNA condensation | Propidium iodide (PI) red fluorescence [3]: no red fluorescence

COc1c(C)cc(O)cc1C/C=C(\C)CC(=O)/C=C(/C)CCC[C@@H](C)C(=O)/C=C/C(C)(C)O [6Z-1′Methoxyamentadione (2), 6Z-1′-methoxyamentadione]
Decrease of ATP production compared to untreated cells [1]: 92.49% | Plasma membrane permeability damage (SYTOX green) [2]: plasma membrane permeability damage | Apoptotic phase suggested by Hoechst/PI staining [3]: late apoptotic phase | Chromatin condensation (Hoechst 33342 stain) [3]: induced DNA condensation | Propidium iodide (PI) red fluorescence [3]: showed red fluorescence

COc1c(C)cc(O)cc1C/C=C(\C)CC(=O)/C=C(\C)CCCC(C)=O [Cystomexicone B (6), cystomexicone B]
Decrease of ATP production compared to untreated cells [1]: 65.59% | Plasma membrane permeability damage (SYTOX green) [2]: plasma membrane permeability damage | CC50 [4]: > 500 µM | Apoptotic phase suggested by Hoechst/PI staining [3]: early apoptotic phase | Chromatin condensation (Hoechst 33342 stain) [3]: induced DNA condensation | Propidium iodide (PI) red fluorescence [3]: no red fluorescence

COc1c(C)cc(O)cc1C/C=C(\C)CC(=O)C/C(C)=C/CC[C@@H](C)C(=O)/C=C/C(C)(C)O [Gongolarone B (1), gongolarone B]
Decrease of ATP production compared to untreated cells [1]: 85.75% | Plasma membrane permeability damage (SYTOX green) [2]: plasma membrane permeability damage | Apoptotic phase suggested by Hoechst/PI staining [3]: late apoptotic phase | Chromatin condensation (Hoechst 33342 stain) [3]: induced DNA condensation | Propidium iodide (PI) red fluorescence [3]: showed red fluorescence
